In the supplement of paper PMC10307832:

Assays:
Assay in all cases: relative viability (nuclei count vs DMSO), 5 days (fraction); higher = more cells survive
Motesanib + Palbociclib = compound: CC1(C)CNc2cc(NC(=O)c3cccnc3NCc3ccncc3)ccc21 [Motesanib] + CC(=O)c1c(C)c2cnc(Nc3ccc(N4CCNCC4)cn3)nc2n(C2CCCC2)c1=O [Palbociclib] (partner 0.5 µM)
Procedure, shortened: (§1)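 After 5 days of treatment, lung cancer cells in 1536-well plates were fixed and stained in a single step (final 0.05% Triton X-100, 1% formaldehyde, 1 ug/ml Hoechst) and their nuclei counted on 4× images. Treatment had been applied by pin tool the day after seeding as one drug alone or as a fixed anchor-drug dose with five library-drug doses (not always all listed) in √10 steps. Relative viability is the nuclei count of treated wells divided by that of vehicle wells, and values are medians of duplicate plates.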

Motesanib + Pemetrexed = compound: CC1(C)CNc2cc(NC(=O)c3cccnc3NCc3ccncc3)ccc21 [Motesanib] + Nc1nc2[nH]cc(CCc3ccc(C(=O)N[C@@H](CCC(=O)O)C(=O)O)cc3)c2c(=O)[nH]1 [Pemetrexed] (partner 0.2 µM)
Procedure, shortened: as §1

[1] = compound: C[C@@]1(C(=O)Nc2ccc(F)nc2)CCCN1c1nc(Nc2cc(C3CC3)n[nH]2)c2cccn2n1 + Cc1nc(NC(=O)N2CCC[C@H]2C(N)=O)sc1-c1ccnc(C(C)(C)C(F)(F)F)c1 [Alpelisib] (partner 2 µM)
Procedure, shortened: as §1

[2] = compound: C[C@@]1(C(=O)Nc2ccc(F)nc2)CCCN1c1nc(Nc2cc(C3CC3)n[nH]2)c2cccn2n1 + Nc1ncn([C@H]2C[C@H](O)[C@@H](CO)O2)c(=O)n1 [Decitabine] (partner 2 µM)
Procedure, shortened: as §1

| Cell Line | relative viability (Motesanib + Palbociclib; first compound 0.01 µM) | relative viability (Motesanib + Palbociclib; first compound 0.03162 µM) | relative viability (Motesanib + Palbociclib; first compound 0.1 µM) | relative viability (Motesanib + Palbociclib; first compound 0.3162 µM) | relative viability (Motesanib + Palbociclib; first compound 1 µM) | relative viability (Motesanib + Pemetrexed; first compound 0.01 µM) | relative viability (Motesanib + Pemetrexed; first compound 0.03162 µM) | relative viability (Motesanib + Pemetrexed; first compound 0.1 µM) | relative viability (Motesanib + Pemetrexed; first compound 0.3162 µM) | relative viability (Motesanib + Pemetrexed; first compound 1 µM) | relative viability ([1]; first compound 0.04 µM) | relative viability ([1]; first compound 0.1265 µM) | relative viability ([1]; first compound 0.4 µM) | relative viability ([1]; first compound 1.265 µM) | relative viability ([2]; first compound 0.04 µM) | relative viability ([2]; first compound 0.1265 µM) | relative viability ([2]; first compound 0.4 µM) | relative viability ([2]; first compound 1.265 µM) |
| --- | --- | --- | --- | --- | --- | --- | --- | --- | --- | --- | --- | --- | --- | --- | --- | --- | --- | --- |
| RERF-LC-KJ | 1.11 | 0.968 | 1.18 | 1.12 | 1.19 | 0.471 | 0.502 | 0.495 | 0.472 | 0.527 | 0.708 | 0.866 | 0.515 | 0.787 | 0.662 | 0.629 | 0.468 | 0.467 |
| LXF-289 | 0.659 | 0.6 | 0.563 | 0.656 | 0.585 | 0.704 | 0.845 | 0.898 | 0.896 | 0.57 | 1.09 | 0.991 | 0.975 | 1.1 | 0.361 | 0.385 | 0.394 | 0.383 |
| PC-14 | 0.465 | 0.539 | 0.539 | 0.512 | 0.593 | 0.131 | 0.126 | 0.132 | 0.128 | 0.13 | 0.89 | 0.828 | 0.833 | 0.941 | 0.209 | 0.27 | 0.177 | 0.172 |
| NCI-H650 | 0.32 | 0.3 | 0.356 | 0.319 | 0.341 | 0.853 | 0.942 | 0.803 | 0.956 | 0.859 | 1.04 | 0.731 | 0.891 | 0.811 | 0.291 | 0.311 | 0.305 | 0.29 |
| NCI-H1666 | 0.649 | 0.577 | 0.679 | 0.751 | 0.63 | 0.954 | 0.831 | 0.816 | 0.868 | 0.824 | 0.825 | 0.798 | 0.742 | 0.585 | 0.66 | 0.644 | 0.587 | 0.492 |
| NCI-H2085 | 0.512 | 0.488 | 0.471 | 0.465 | 0.474 | 0.895 | 0.969 | 0.852 | 0.851 | 0.892 | 0.936 | 0.927 | 0.883 | 0.851 | 0.51 | 0.499 | 0.538 | 0.528 |
| NCI-H1734 | 0.359 | 0.349 | 0.387 | 0.348 | 0.324 | 0.408 | 0.386 | 0.333 | 0.272 | 0.265 | 0.571 | 0.509 | 0.476 | 0.605 | 0.456 | 0.389 | 0.405 | 0.437 |
| NCI-H2126 | 0.333 | 0.35 | 0.341 | 0.347 | 0.412 | 0.683 | 0.715 | 0.615 | 0.695 | 0.655 | 0.637 | 0.561 | 0.531 | 0.657 | 0.539 | 0.389 | 0.36 | 0.471 |
| EMC-BAC-2 | 0.513 | 0.511 | 0.526 | 0.526 | 0.534 | 0.412 | 0.408 | 0.471 | 0.412 | 0.524 | 0.634 | 0.664 | 0.613 | 0.818 | 0.709 | 0.737 | 0.578 | 0.717 |
| NCI-H1993 | 0.675 | 0.622 | 0.752 | 0.626 | 0.553 | 0.452 | 0.623 | 0.533 | 0.641 | 0.57 | 0.678 |  | 0.649 | 0.745 | 0.532 | 0.522 | 0.486 | 0.458 |
| NCI-H520 | 0.209 | 0.215 | 0.235 | 0.234 | 0.225 | 0.577 | 0.594 | 0.51 | 0.586 | 0.643 | 0.918 | 0.688 | 0.926 | 0.801 | 0.498 | 0.493 | 0.416 | 0.491 |
| NCI-H647 | 0.428 | 0.262 | 0.395 | 0.423 | 0.466 | 0.178 | 0.175 | 0.16 | 0.143 | 0.165 | 1.24 | 0.957 | 0.864 | 0.913 | 0.504 | 0.312 | 0.368 | 0.421 |
| NCI-H1792 |  | 0.583 | 0.653 | 0.675 | 0.667 | 0.778 | 0.859 | 0.791 | 0.785 | 0.711 | 0.618 | 0.538 | 0.58 | 0.686 | 0.401 | 0.235 | 0.249 | 0.304 |
| SK-LU-1 | 0.386 | 0.438 | 0.44 | 0.409 | 0.401 | 0.961 | 0.806 | 0.547 | 0.417 | 0.347 | 1.18 | 0.965 | 0.825 | 0.708 | 0.672 | 0.543 | 0.489 | 0.524 |
| NCI-H2009 | 0.273 | 0.246 | 0.276 | 0.246 | 0.264 | 0.949 | 1.02 | 1.01 | 1.06 | 0.973 | 1.17 | 1.24 | 1.12 | 1.22 | 0.401 | 0.369 | 0.406 | 0.313 |
| LOU-NH91 | 0.536 | 0.463 | 0.539 | 0.58 | 0.553 | 0.357 | 0.37 | 0.373 | 0.406 | 0.382 | 0.68 | 0.664 | 0.614 | 0.675 | 0.774 | 0.874 | 0.744 | 0.771 |
| NCI-H2405 | 0.511 | 0.499 | 0.535 | 0.562 | 0.52 | 1.05 | 1.11 | 1.02 | 1.11 | 1.02 | 0.785 | 0.688 | 0.552 | 0.573 | 0.68 | 0.487 | 0.488 | 0.576 |
| LCLC-97TM1 | 0.188 | 0.216 | 0.229 | 0.32 | 0.261 | 0.175 | 0.153 | 0.151 | 0.16 | 0.173 | 0.186 | 0.156 | 0.181 | 0.181 | 0.228 | 0.131 | 0.111 | 0.271 |
| H3255 | 0.308 | 0.326 | 0.322 | 0.348 | 0.363 | 0.552 | 0.59 | 0.602 | 0.589 | 0.587 | 0.713 | 0.771 | 0.514 | 0.699 | 0.587 | 0.622 | 0.521 | 0.65 |
| SK-MES-1 | 0.322 | 0.319 | 0.316 | 0.331 | 0.351 | 0.912 | 0.953 | 1.03 | 0.943 | 1.02 | 0.962 | 0.676 |  | 0.843 | 0.333 | 0.424 | 0.333 | 0.344 |
| NCI-H1437 | 0.271 | 0.266 | 0.295 | 0.302 | 0.278 | 0.297 | 0.286 | 0.318 | 0.32 | 0.297 | 0.722 | 0.561 | 0.581 | 0.717 | 0.553 | 0.517 | 0.521 | 0.432 |
| LU99A | 0.412 | 0.489 | 0.435 | 0.334 | 0.417 | 0.2 | 0.181 | 0.185 | 0.18 | 0.174 | 0.392 | 0.306 | 0.291 | 0.307 | 0.764 | 0.585 | 0.527 | 0.738 |
| HCC-827 | 0.569 | 0.437 | 0.459 | 0.546 | 0.439 | 0.252 | 0.301 | 0.271 | 0.277 | 0.29 | 0.987 | 1 | 0.93 | 1.01 | 0.295 | 0.312 | 0.351 | 0.305 |
| LK-2 | 0.784 | 0.659 | 0.537 | 0.667 | 0.708 | 0.234 | 0.288 | 0.208 | 0.256 | 0.171 | 1.01 | 1.13 | 0.818 | 1.23 |  | 0.171 | 0.18 | 0.162 |
| HCC-366 | 0.354 | 0.36 | 0.367 | 0.452 | 0.435 | 0.189 | 0.154 | 0.18 | 0.147 | 0.143 | 0.205 | 0.162 | 0.141 | 0.163 | 0.315 | 0.292 | 0.265 | 0.265 |
| BEN | 0.458 | 0.457 | 0.478 | 0.481 | 0.476 | 0.539 | 0.774 | 0.73 | 0.582 | 0.749 | 1.16 | 1.37 | 0.929 | 1.16 | 0.702 | 0.583 | 0.737 | 0.562 |
| NCI-H23 | 0.482 | 0.491 | 0.456 | 0.604 | 0.467 | 0.645 | 0.624 | 0.518 | 0.447 | 0.545 | 0.595 | 0.407 | 0.41 | 0.601 | 0.274 | 0.253 | 0.258 | 0.271 |
| NCI-H1395 | 0.682 | 0.602 | 0.623 | 0.661 | 0.661 | 0.923 | 0.815 | 0.826 | 0.881 | 0.765 | 0.988 | 0.719 | 1.15 | 1.1 | 0.7 | 0.705 | 0.653 | 0.68 |
| 201T | 0.34 | 0.343 | 0.358 | 0.371 | 0.373 | 0.307 | 0.326 | 0.318 | 0.296 | 0.342 | 0.893 | 0.836 | 0.767 | 0.942 | 0.813 | 0.714 | 0.671 | 0.862 |
| NCI-H2170 | 0.397 | 0.382 | 0.388 | 0.377 | 0.397 | 0.258 | 0.255 | 0.257 | 0.269 | 0.253 | 0.728 | 0.658 | 0.606 | 0.728 | 0.43 | 0.489 | 0.442 | 0.468 |
